Values quoted from earlier work in patent publication US20250145599A1, “CERTAIN CHEMICAL ENTITIES, COMPOSITIONS, AND METHODS” (Retune Pharma Inc., priority 2022, published 2025).

Assays:
adrenocortical carcinoma = conditions: Phase 3 study; cited from earlier work
tumor cell lines = conditions: variety of tumor cell lines; cited from earlier work
[1] = system: IGF-1R-driven xenograft model; conditions: orally once daily; cited from earlier work
IGF-1R = IGF-1R (Homo sapiens, UniProt P08069); conditions: cited from earlier work
Chain of IGF-1R (P08069 31-1367): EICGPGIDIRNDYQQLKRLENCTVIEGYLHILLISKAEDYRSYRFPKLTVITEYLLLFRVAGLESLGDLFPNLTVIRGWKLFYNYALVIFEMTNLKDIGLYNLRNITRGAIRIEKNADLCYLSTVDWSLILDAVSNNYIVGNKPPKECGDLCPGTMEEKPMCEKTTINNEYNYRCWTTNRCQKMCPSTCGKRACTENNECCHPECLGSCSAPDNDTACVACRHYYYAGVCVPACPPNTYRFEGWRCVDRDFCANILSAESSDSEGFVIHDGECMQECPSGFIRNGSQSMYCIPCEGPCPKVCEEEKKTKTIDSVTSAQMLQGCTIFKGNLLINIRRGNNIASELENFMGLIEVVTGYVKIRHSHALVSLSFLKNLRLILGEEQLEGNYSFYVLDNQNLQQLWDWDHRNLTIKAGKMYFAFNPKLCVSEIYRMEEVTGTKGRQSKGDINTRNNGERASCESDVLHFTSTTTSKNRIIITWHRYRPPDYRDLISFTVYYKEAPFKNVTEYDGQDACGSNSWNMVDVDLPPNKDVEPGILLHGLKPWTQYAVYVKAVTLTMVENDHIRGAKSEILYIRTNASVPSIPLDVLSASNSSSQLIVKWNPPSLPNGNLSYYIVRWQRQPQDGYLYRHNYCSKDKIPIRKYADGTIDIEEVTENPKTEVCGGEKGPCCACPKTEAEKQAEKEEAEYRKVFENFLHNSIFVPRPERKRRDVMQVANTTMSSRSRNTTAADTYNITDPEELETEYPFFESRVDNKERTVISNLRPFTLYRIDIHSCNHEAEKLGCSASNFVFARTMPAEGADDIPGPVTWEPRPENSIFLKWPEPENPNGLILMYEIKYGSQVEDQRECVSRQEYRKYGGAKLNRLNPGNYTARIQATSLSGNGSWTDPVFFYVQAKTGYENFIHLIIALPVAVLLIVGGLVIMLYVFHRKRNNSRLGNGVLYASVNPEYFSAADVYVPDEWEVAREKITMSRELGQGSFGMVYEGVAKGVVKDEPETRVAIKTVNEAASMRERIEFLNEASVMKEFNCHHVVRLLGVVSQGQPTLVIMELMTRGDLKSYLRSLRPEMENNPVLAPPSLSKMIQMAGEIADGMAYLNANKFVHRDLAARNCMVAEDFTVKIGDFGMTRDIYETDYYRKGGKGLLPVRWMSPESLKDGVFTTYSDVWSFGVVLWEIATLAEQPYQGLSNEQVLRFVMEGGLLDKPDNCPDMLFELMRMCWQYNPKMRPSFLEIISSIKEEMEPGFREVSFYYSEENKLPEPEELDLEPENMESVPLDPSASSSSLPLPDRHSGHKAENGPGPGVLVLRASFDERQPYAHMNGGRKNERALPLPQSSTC

In the case of `C[C@]1(O)C[C@@H](c2nc(-c3ccc4ccc(-c5ccccc5)nc4c3)c3c(N)nccn32)C1` [OSI-906, Linsitinib], the overall survival (adrenocortical carcinoma) is listed as “did not increase overall survival”, the “in vitro antiproliferative effects” value (tumor cell lines) is listed as “in vitro antiproliferative effects” and the “in vivo anti-tumor efficacy” value [1] is listed as “robust in vivo anti-tumor efficacy”. For the same compound, the “inhibition of autophosphorylation of human IGF-1R” value (IGF-1R) was “potently and selectively inhibits autophosphorylation”.
